Experimental data taken from US10208033B2, “β-carboline, dihydro-β-carboline and tetrahydro-β-carboline alkaloid derivatives and preparation methods same and use in aspects of preventing and treating plant viruses, fungicides and insecticides” (NANKAI UNIVERSITY, priority 2013, dated 2019).

How the values were obtained:
[1] = biological target: monoamine oxidase (MAO-A) (Homo sapiens, UniProt P21397); details: cited from earlier work
[2] = system: tobacco mosaic virus (TMV); assay: Anti-TMV in vivo inactivation; parameters: species or system tobacco mosaic virus (host Nicotiana tabacum L.cv.Xanthi NN); details: Tobacco mosaic virus, read-out: Relative inhibition rate (%) In vivo inactivation
Rhizoctonia solani = assay: Fungicidal (bactericidal) activity in vitro, PDA colony diameter; type: cell-based; details: Rhizoctonia solani, 96 h; 50 mg/kg
cucumber fusarium wilt = assay: as above; type: cell-based; details: Fusarium, 96 h; 50 mg/kg
[3] = system: Colletotrichum orbiculare; assay: as above; type: cell-based; details: Colletotrichum orbiculare, 96 h; 50 mg/kg
Botrytis cinerea = assay: as above; type: cell-based; details: Botrytis cinerea, 96 h; 50 mg/kg
armyworms = type: in vivo; details: concentration 600 mg/kg
Bipolaria maydis = assay: organism not typed; type: cell-based; details: read-out: Bactericidal activity (%) Bipolaria maydis
Fusarium graminearumt = assay: microbe, parasite or virus in culture; type: cell-based; details: Fusarium, 96 h, read-out: Bactericidal activity (%) Fusarium graminearumt
potato late blight = assay: microbe, parasite or virus in culture; type: cell-based; details: Phytophthora infestans, 96 h, read-out: Bactericidal activity (%) potato late blight
Phytophthora capsici = assay: Fungicidal (bactericidal) activity in vitro, PDA colony diameter; type: cell-based; details: Phytophthora capsici, 96 h; 50 mg/kg
[4] = system: tobacco mosaic virus (TMV); assay: Anti-TMV in vivo therapeutic effect; parameters: species or system tobacco mosaic virus (host Nicotiana tabacum L.cv.Xanthi NN); details: Tobacco mosaic virus, read-out: Relative inhibition rate (%) In vivo therapy
Sclerotinia scleotiorum = assay: Fungicidal (bactericidal) activity in vitro, PDA colony diameter; type: cell-based; details: Sclerotinia, 96 h; 50 mg/kg
[5] = system: tobacco mosaic virus (TMV); assay: Anti-TMV in vivo protective effect; parameters: species or system tobacco mosaic virus (host Nicotiana tabacum L.cv.Xanthi NN); details: Tobacco mosaic virus, read-out: Relative inhibition rate (%) In vivo protection
Fusarium fujikuroi = assay: Fungicidal (bactericidal) activity in vitro, PDA colony diameter; type: cell-based; details: Fusarium fujikuroi, 96 h; 50 mg/kg
HL60 = details: cited from earlier work
Macrophoma kawatsukai = assay: Fungicidal (bactericidal) activity in vitro, PDA colony diameter; type: cell-based; details: 50 mg/kg
[6] = system: tobacco mosaic virus (TMV); assay: Anti-TMV in vitro effect (half-leaf soaking); type: cell-based, tobacco mosaic virus (host Nicotiana tabacum L.cv.Xanthi NN); details: Tobacco mosaic virus, read-out: Relative inhibition rate (%) In vitro activity
Alternaria solani = assay: Fungicidal (bactericidal) activity in vitro, PDA colony diameter; type: cell-based; details: Alternaria solani, 96 h; 50 mg/kg
cotton bollworms = assay: whole plant or invertebrate; details: Helicoverpa armigera, in Gossypium hirsutum, read-out: Cotton bollworm Mortality (%)
Method: Experimental method of cotton bollworms: feed and drug mixing method: measure 3 mL of prepared solution and add it to about 27 g of newly prepared feed, thereby obtaining needed concentration through dilution by 10 times.

corn borers = assay: whole plant or invertebrate; details: read-out: Corn borer Mortality (%)
Cercospora arachidicola = assay: Fungicidal (bactericidal) activity in vitro, PDA colony diameter; type: cell-based; details: Mycosphaerella arachidis, 96 h; 50 mg/kg
mosquito larvae = assay: whole plant or invertebrate; details: Culex pipiens, 24 h, read-out: Mosquito larvae Mortality (%)
Procedure, shortened: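 Compound dissolved in acetone (or other solvent) to a 1000 ppm stock and diluted in water to 5 ppm. Ten Culex pipiens pallens larvae at the start of the fourth instar, laboratory-reared, added per beaker; solvent-only aqueous control.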

Rhizoctonia cereali = assay: Fungicidal (bactericidal) activity in vitro, PDA colony diameter; type: cell-based; details: Rhizoctonia, 96 h; 50 mg/kg

Chain of monoamine oxidase (MAO-A) (P21397 whole entry, species assumed): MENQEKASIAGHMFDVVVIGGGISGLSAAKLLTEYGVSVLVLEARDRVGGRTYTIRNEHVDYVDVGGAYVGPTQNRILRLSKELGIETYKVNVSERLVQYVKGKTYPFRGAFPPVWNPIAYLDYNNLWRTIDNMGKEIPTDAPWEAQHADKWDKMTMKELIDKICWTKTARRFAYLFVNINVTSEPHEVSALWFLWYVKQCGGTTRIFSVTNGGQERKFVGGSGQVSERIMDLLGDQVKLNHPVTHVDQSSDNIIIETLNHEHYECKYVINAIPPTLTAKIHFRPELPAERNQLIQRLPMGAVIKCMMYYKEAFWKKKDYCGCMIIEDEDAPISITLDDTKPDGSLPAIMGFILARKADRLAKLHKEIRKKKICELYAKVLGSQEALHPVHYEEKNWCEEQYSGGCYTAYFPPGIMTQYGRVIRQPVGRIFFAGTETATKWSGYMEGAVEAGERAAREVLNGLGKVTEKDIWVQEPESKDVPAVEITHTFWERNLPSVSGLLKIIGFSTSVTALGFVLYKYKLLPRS

Which “inhibition of monoamine oxidase (MAO-A)” value [1] does the source give for `COc1ccc2c3c([nH]c2c1)C(C)=NCC3` [Harmaline] here?
The value was “reversible inhibitor”.

Which inhibition at 100 µg/mL ([2]; treatment dose 100 μg/mL) does the source give for `COc1ccc2c(c1)[nH]c1c(C)nccc12` [Harmine] here?
Its inhibition at 100 µg/mL is 11.4%.

And the inhibition at 500 µg/mL ([2]; treatment dose 500 μg/mL)?
The inhibition at 500 µg/mL was 40.5%.

And the inhibition of growth at 50 mg/kg (Rhizoctonia solani)?
Its inhibition of growth at 50 mg/kg is 21.4%.

What about the inhibition of growth at 50 mg/kg (cucumber fusarium wilt) of the same compound?
The inhibition of growth at 50 mg/kg was 28.6%.

What about the inhibition of growth at 50 mg/kg [3] of the same compound?
The inhibition of growth at 50 mg/kg was 57.1%.

And the inhibition of growth at 50 mg/kg (Botrytis cinerea)?
Its inhibition of growth at 50 mg/kg is 59.1%.

What about the “Armyworm Mortality (%)” value (armyworms) of the same compound?
The value was 20%.

And the inhibition at 50 mg/kg (Bipolaria maydis)?
Its inhibition at 50 mg/kg is 31.6%.

And the inhibition of growth at 50 mg/kg (Fusarium graminearumt)?
The inhibition of growth at 50 mg/kg was 92.9%.

And the inhibition of growth at 50 mg/kg (potato late blight)?
The inhibition of growth at 50 mg/kg was 35%.

And the inhibition of growth at 50 mg/kg (Phytophthora capsici)?
The inhibition of growth at 50 mg/kg was 60.6%.

What about the inhibition at 100 µg/mL ([4]; treatment dose 100 μg/mL) of the same compound?
Its inhibition at 100 µg/mL is 15.8%.

And the inhibition at 500 µg/mL ([4]; treatment dose 500 μg/mL)?
The inhibition at 500 µg/mL was 38.6%.

What about the inhibition of growth at 50 mg/kg (Sclerotinia scleotiorum) of the same compound?
The inhibition of growth at 50 mg/kg was 48%.

And the inhibition at 100 µg/mL ([5]; treatment dose 100 μg/mL)?
The inhibition at 100 µg/mL was 16.3%.

What about the inhibition at 500 µg/mL ([5]; treatment dose 500 μg/mL) of the same compound?
Its inhibition at 500 µg/mL is 42.4%.

What about the inhibition of growth at 50 mg/kg (Fusarium fujikuroi) of the same compound?
The inhibition of growth at 50 mg/kg was 57.1%.

And the “cytotoxicity to leukemia cell line HL60” value (HL60)?
Its value is “shows cytotoxicity”.

What about the inhibition at 50 mg/kg (Macrophoma kawatsukai) of the same compound?
Its inhibition at 50 mg/kg is 35.3%.

And the inhibition at 100 µg/mL ([6]; treatment dose 100 μg/mL)?
The inhibition at 100 µg/mL was 20%.

And the inhibition at 500 µg/mL ([6]; treatment dose 500 μg/mL)?
Its inhibition at 500 µg/mL is 44.6%.

What about the inhibition of growth at 50 mg/kg (Alternaria solani) of the same compound?
The inhibition of growth at 50 mg/kg was 83.3%.

What about the mortality at 600 mg/kg (cotton bollworms) of the same compound?
The mortality at 600 mg/kg was 15%.

What about the mortality at 600 mg/kg (corn borers) of the same compound?
Its mortality at 600 mg/kg is 15%.

And the inhibition of growth at 50 mg/kg (Cercospora arachidicola)?
Its inhibition of growth at 50 mg/kg is 57.1%.

What about the mortality at 10 mg/kg (mosquito larvae) of the same compound?
Its mortality at 10 mg/kg is 45%.

What about the inhibition of growth at 50 mg/kg (Rhizoctonia cereali) of the same compound?
Its inhibition of growth at 50 mg/kg is 71.9%.
